Experimental data from patent publication US9708314B2, “Heterocyclic amide compound” (NISSAN CHEMICAL INDUSTRIES, LTD., priority 2013, dated 2017).

How the values were obtained:
Format in all cases: in vivo
Scirpus juncoides [1] = assay: Test Example 2: herbicidal activity, application during weed generation in submerged conditions; conditions: Eighteenth Table; application herbicide amount 320 g/ha
Summary of the method: (§1)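 Paddy-type pot test: flooded soil, 4 cm depth, greenhouse 25–30 °C. Emulsion formulation diluted in water, applied to water surface at 1–2 leaf stage; rate expressed as g/ha. Read-out at 3 wk, 0–5 score.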

[2] = test system: Echinochloa oryzacola Vasing.; assay: as above; conditions: Eighteenth Table; application herbicide amount 320 g/ha
Summary of the method: as §1

Monochoria vaginalis [3] = assay: as above; conditions: Eighteenth Table; application herbicide amount 320 g/ha
Summary of the method: as §1

Scirpus juncoides [4] = assay: Test Example 1: herbicidal activity, application before weed generation in submerged conditions; conditions: Application herbicide amount 320 g/ha; Seventeenth Table
Summary of the method: (§2)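 Submerged pot test: alluvial soil, 4 cm water, seeds sown mixed, 2.5-leaf rice transplanted; emulsion in water applied to surface day of sowing, dose g/ha; greenhouse 25–30° C.; 3 wk; 0–5 rating.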

[5] = test system: Echinochloa oryzacola Vasing.; assay: as above; conditions: Application herbicide amount 320 g/ha; Seventeenth Table
Summary of the method: as §2

Monochoria vaginalis [6] = assay: as above; conditions: Application herbicide amount 320 g/ha; Seventeenth Table
Summary of the method: as §2

[7] = test system: transplanted Oryza sativa; assay: Test Example 1: effect on crop, application before weed generation in submerged conditions; conditions: Application herbicide amount 320 g/ha; Seventeenth Table
Summary of the method: as §2

SMILES	B (Scirpus juncoides) herbicidal ratio grade (Scirpus juncoides [1])	A (Echinochloa oryzicola Vasing.) herbicidal ratio grade [2]	C (Monochoria vaginalis) herbicidal ratio grade (Monochoria vaginalis [3])	B: Scirpus juncoides (herbicidal effect grade) (Scirpus juncoides [4])	A: Echinochloa oryzicola Vasing. (herbicidal effect grade) [5]	C: Monochoria vaginalis (herbicidal effect grade) (Monochoria vaginalis [6])	a: transplanted Oryza sativa (effect on crop grade) [7]
CCCc1nnc2c(C(=O)Nc3nnnn3C)ccc(C(F)(F)F)n12 [2-019]	3 (Herbicidal ratio of 40% or more and less than 70%)	4 (Herbicidal ratio of 70% or more and less than 90%)	4 (Herbicidal ratio of 70% or more and less than 90%)	5 (Herbicidal ratio of 90% or more (almost completely withered))	5 (Herbicidal ratio of 90% or more (almost completely withered))	4 (Herbicidal ratio of 70% or more and less than 90%)	2 (Herbicidal ratio of 20% or more and less than 40%)
Cn1nnnc1NC(=O)c1ccc(C(F)(F)F)n2c(COc3ccccc3)nnc12 [2-020]	2 (Herbicidal ratio of 20% or more and less than 40%)	2 (Herbicidal ratio of 20% or more and less than 40%)	0 (Herbicidal ratio of 5% or less (almost no effect))	2 (Herbicidal ratio of 20% or more and less than 40%)	3 (Herbicidal ratio of 40% or more and less than 70%)	2 (Herbicidal ratio of 20% or more and less than 40%)	1 (Herbicidal ratio of 5% or more and less than 20%)
Cn1nnnc1NC(=O)c1ccc(C(F)(F)F)n2c(C3CCCC3)nnc12 [2-021]	4 (Herbicidal ratio of 70% or more and less than 90%)	5 (Herbicidal ratio of 90% or more (almost completely withered))	4 (Herbicidal ratio of 70% or more and less than 90%)	5 (Herbicidal ratio of 90% or more (almost completely withered))	5 (Herbicidal ratio of 90% or more (almost completely withered))	5 (Herbicidal ratio of 90% or more (almost completely withered))	4 (Herbicidal ratio of 70% or more and less than 90%)
Cn1nnnc1NC(=O)c1ccc(C(F)(F)F)n2c(C3CCOC3)nnc12 (stereo not shown) [2-022]	5 (Herbicidal ratio of 90% or more (almost completely withered))	5 (Herbicidal ratio of 90% or more (almost completely withered))	4 (Herbicidal ratio of 70% or more and less than 90%)	5 (Herbicidal ratio of 90% or more (almost completely withered))	5 (Herbicidal ratio of 90% or more (almost completely withered))	5 (Herbicidal ratio of 90% or more (almost completely withered))	5 (Herbicidal ratio of 90% or more (almost completely withered))
CC(C)c1nnc2c(C(=O)N(C)c3nnnn3C)ccc(C(F)(F)F)n12 [2-023]	1 (Herbicidal ratio of 5% or more and less than 20%)	0 (Herbicidal ratio of 5% or less (almost no effect))	1 (Herbicidal ratio of 5% or more and less than 20%)	1 (Herbicidal ratio of 5% or more and less than 20%)	2 (Herbicidal ratio of 20% or more and less than 40%)	0 (Herbicidal ratio of 5% or less (almost no effect))	3 (Herbicidal ratio of 40% or more and less than 70%)
CCSc1nnc2c(C(=O)Nc3nnnn3C)ccc(C(F)(F)F)n12 [2-024]	4 (Herbicidal ratio of 70% or more and less than 90%)	5 (Herbicidal ratio of 90% or more (almost completely withered))	4 (Herbicidal ratio of 70% or more and less than 90%)	5 (Herbicidal ratio of 90% or more (almost completely withered))	5 (Herbicidal ratio of 90% or more (almost completely withered))	5 (Herbicidal ratio of 90% or more (almost completely withered))	5 (Herbicidal ratio of 90% or more (almost completely withered))
CC(C)Sc1nnc2c(C(=O)Nc3nnnn3C)ccc(C(F)(F)F)n12 [2-025]	4 (Herbicidal ratio of 70% or more and less than 90%)	5 (Herbicidal ratio of 90% or more (almost completely withered))	5 (Herbicidal ratio of 90% or more (almost completely withered))	5 (Herbicidal ratio of 90% or more (almost completely withered))	5 (Herbicidal ratio of 90% or more (almost completely withered))	5 (Herbicidal ratio of 90% or more (almost completely withered))	5 (Herbicidal ratio of 90% or more (almost completely withered))
CCOCc1nnc2c(C(=O)Nc3nnnn3C)ccc(C(F)(F)F)n12 [2-026]	5 (Herbicidal ratio of 90% or more (almost completely withered))	5 (Herbicidal ratio of 90% or more (almost completely withered))	4 (Herbicidal ratio of 70% or more and less than 90%)	5 (Herbicidal ratio of 90% or more (almost completely withered))	5 (Herbicidal ratio of 90% or more (almost completely withered))	4 (Herbicidal ratio of 70% or more and less than 90%)	4 (Herbicidal ratio of 70% or more and less than 90%)
Cn1nnnc1NC(=O)c1ccc(C(F)(F)F)n2c(C(C)(C)C)nnc12 [2-027]	4 (Herbicidal ratio of 70% or more and less than 90%)	5 (Herbicidal ratio of 90% or more (almost completely withered))	4 (Herbicidal ratio of 70% or more and less than 90%)	5 (Herbicidal ratio of 90% or more (almost completely withered))	5 (Herbicidal ratio of 90% or more (almost completely withered))	5 (Herbicidal ratio of 90% or more (almost completely withered))	4 (Herbicidal ratio of 70% or more and less than 90%)
Cn1nnnc1NC(=O)c1ccc(C(F)(F)F)n2c(C3=NOC(C)(C)C3)nnc12 [2-028]	4 (Herbicidal ratio of 70% or more and less than 90%)	5 (Herbicidal ratio of 90% or more (almost completely withered))	4 (Herbicidal ratio of 70% or more and less than 90%)	5 (Herbicidal ratio of 90% or more (almost completely withered))	5 (Herbicidal ratio of 90% or more (almost completely withered))	5 (Herbicidal ratio of 90% or more (almost completely withered))	5 (Herbicidal ratio of 90% or more (almost completely withered))
CSCc1nnc2c(C(=O)Nc3nnnn3C)ccc(C(F)(F)F)n12 [2-029]	4 (Herbicidal ratio of 70% or more and less than 90%)	5 (Herbicidal ratio of 90% or more (almost completely withered))	4 (Herbicidal ratio of 70% or more and less than 90%)	5 (Herbicidal ratio of 90% or more (almost completely withered))	5 (Herbicidal ratio of 90% or more (almost completely withered))	5 (Herbicidal ratio of 90% or more (almost completely withered))	5 (Herbicidal ratio of 90% or more (almost completely withered))
Cn1nnnc1NC(=O)c1ccc(C(F)(F)F)n2c(CSCC(F)(F)F)nnc12 [2-030]	3 (Herbicidal ratio of 40% or more and less than 70%)	4 (Herbicidal ratio of 70% or more and less than 90%)	4 (Herbicidal ratio of 70% or more and less than 90%)	4 (Herbicidal ratio of 70% or more and less than 90%)	5 (Herbicidal ratio of 90% or more (almost completely withered))	4 (Herbicidal ratio of 70% or more and less than 90%)	3 (Herbicidal ratio of 40% or more and less than 70%)
CC[S+]([O-])c1nnc2c(C(=O)Nc3nnnn3C)ccc(C(F)(F)F)n12 (stereo not shown) [2-031]	4 (Herbicidal ratio of 70% or more and less than 90%)	5 (Herbicidal ratio of 90% or more (almost completely withered))	4 (Herbicidal ratio of 70% or more and less than 90%)	5 (Herbicidal ratio of 90% or more (almost completely withered))	5 (Herbicidal ratio of 90% or more (almost completely withered))	5 (Herbicidal ratio of 90% or more (almost completely withered))	5 (Herbicidal ratio of 90% or more (almost completely withered))
